Assay results published in PMC7126937 (Bioorganic & Medicinal Chemistry, 2014).

Key:
[1] = system: influenza virus A/California/7/09 (H1N1)pdm09; assay type: cell-based, influenza virus A/California/07/09 (H1N1)pdm09
[2] = system: influenza virus A/California/7/09 (H1N1)pdm09; conditions: cited from earlier work

Structure (SMILES)	Antiviral (virus-inhibiting) activity, in words [1]	ED50 (50% effective concentration) [2] [µM]
CC1(C)C2CC[C@@]1(C)C(=O)C2 [Compound 1, (1R)-(+)-camphor, reference compound]	does not possess a virus-inhibiting activity	–
CC1(C)[C@@H]2CC[C@@]1(C)/C(=N/CCC/N=C1\C[C@H]3CC[C@]1(C)C3(C)C)C2 [Compound 2a, N^1E,N^3E-N^1,N^3-bis((1R,2R,4R)-1,7,7-trimethylbicyclo[2.2.1]heptan-2-ylidene)propane-1,3-diamine]	highest antiviral activity	–
CC1(C)[C@@H]2CC[C@@]1(C)/C(=N/CCCCCC/N=C1\C[C@H]3CC[C@]1(C)C3(C)C)C2 [Compound 2b, N^1E,N^6E-N^1,N^6-bis((1R,2R,4R)-1,7,7-trimethylbicyclo[2.2.1]heptan-2-ylidene)hexane-1,6-diamine]	highest antiviral activity	–
CC1(C)[C@@H]2CC[C@@]1(C)/C(=N/CCCCCCC/N=C1\C[C@H]3CC[C@]1(C)C3(C)C)C2 [Compound 2c, N^1E,N^7E-N^1,N^7-bis((1R,2R,4R)-1,7,7-trimethylbicyclo[2.2.1]heptan-2-ylidene)heptane-1,7-diamine]	highest antiviral activity	–
CC1(C)[C@@H]2CC[C@@]1(C)/C(=N/CCCCCCCCCCCC/N=C1\C[C@H]3CC[C@]1(C)C3(C)C)C2 [Compound 2e, N^1E,N^12E-N^1,N^12-bis((1R,2R,4R)-1,7,7-trimethylbicyclo[2.2.1]heptan-2-ylidene)dodecane-1,12-diamine]	highest antiviral activity	–
CC1(C)[C@@H]2CC[C@@]1(C)/C(=N/c1ccc(Cc3ccc(/N=C4\C[C@H]5CC[C@]4(C)C5(C)C)cc3)cc1)C2 [Compound 2f, (E)-N-((1R,2R,4R)-1,7,7-trimethylbicyclo[2.2.1]heptan-2-ylidene)-4-(4-((E)-((1R,2R,4R)-1,7,7-trimethylbicyclo[2.2.1]heptan-2-ylidene)amino)benzyl)aniline]	did not exhibit high antiviral activity	–
CC1(C)[C@@H]2CC[C@@]1(C)[C@H](Nc1ccc(Oc3ccc(N[C@@H]4C[C@H]5CC[C@]4(C)C5(C)C)cc3)cc1)C2 [Compound 3g, (1R,2R,4R)-1,7,7-trimethyl-N-(4-(4-((1R,2R,4R)-1,7,7-trimethylbicyclo[2.2.1]heptan-2-ylamino)phenoxy)phenyl)bicyclo[2.2.1]heptan-2-amine]	did not exhibit high antiviral activity	–
CC1(C)[C@@H]2CC[C@@]1(C)/C(=N/c1ccc(Cc3ccc(N)cc3)cc1)C2 [Compound 5f, (E)-4-(4-aminobenzyl)-N-((1R,2R,4R)-1,7,7-trimethylbicyclo[2.2.1]heptan-2-ylidene)aniline]	did not exhibit high antiviral activity	–
NC(=O)c1ncn([C@@H]2O[C@H](CO)[C@@H](O)[C@H]2O)n1 [Ribavirin]	–	24.6
